These results are taken from US11286268B1, “EIF4E-inhibiting compounds and methods” (EFFECTOR THERAPEUTICS, INC., priority 2019, dated 2022).

This assay concerns the target recombinant eIF4E (Homo sapiens (Human), UniProt P06730). The assay is described as follows: Fluorescence polarization competition assay for eIF4E binding potency. In a few lines: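 Competitive displacement format: compounds compete with a fluorescent m7GDP tracer (20 nM) for 75 nM recombinant eIF4E. Incubation is 30 min at room temperature, protected from light, with 1% DMSO. Polarization read gives IC50 over eight 3-fold concentrations.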

Setting [1] is: fluorescence polarization competition, 75 nM recombinant eIF4E, 20 nM EDA-m7GDP-ATTO-550, IC50 class, read-out: elF4E FP.
The mark [2] stands for this setting: inhibition of eIF4E/EDA-m7GDP-ATTO-550 binding by 50%, Table 4B calculated values, read-out: IC50.
Where [3] appears, read: inhibition of eIF4E/EDA-m7GDP-ATTO-550 binding, calculated IC50 values, Table 4B, read-out: IC50.

Read-outs that look alike come from different tables or passages of the source.

recombinant eIF4E, sequence (P06730 whole entry): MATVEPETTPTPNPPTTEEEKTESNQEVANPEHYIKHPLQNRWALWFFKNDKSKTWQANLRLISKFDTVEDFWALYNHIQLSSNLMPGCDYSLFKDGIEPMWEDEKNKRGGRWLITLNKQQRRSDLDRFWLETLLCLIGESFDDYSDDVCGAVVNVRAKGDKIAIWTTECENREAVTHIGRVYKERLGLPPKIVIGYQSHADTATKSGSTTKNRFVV

Take `N#Cc1cc2c(=O)n(CCOc3ccc(Cl)cc3-c3ccc(F)c(C(=O)O)c3F)cnc2cn1` [compound 91]: the IC50 reads like this: under setting [1], 50 to 1000 nM; under setting [2], 287 nM. On to `Cc1nc2cc(F)c(F)c(C#N)c2c(=O)n1CCOc1ccc(Cl)cc1-c1ccnc2c(C(=O)O)csc12` [compound 1947], for which the IC50 under setting [3] is 29.7 nM.

As to `COc1ccc(S(=O)(=O)NC(=O)c2csc3c(-c4cc(Cl)ccc4C#CCn4c(C)nc5cnc(N(C)C6CCN(CC(C)(F)F)CC6)c(C#N)c5c4=O)ccnc23)cn1` [compound 1681], the IC50 under setting [3] was 8.27 nM.

With `N#Cc1cc2c(=O)n(CCCc3ccc(Cl)cc3-c3cccc(C(=O)O)c3)cnc2cn1` [compound 42], the IC50 is greater than 1000 nM under setting [1] and 19800 nM under setting [2]. On to `Cc1nc2cnc(N(C)[C@H]3[C@@H]4CN(CC(F)F)C[C@@H]43)c(C#N)c2c(=O)n1CC#Cc1ccc(Cl)cc1-c1ccnc2c(C(=O)O)csc12` [compound 1403], for which the IC50 under setting [3] was 8.76 nM. On to `CCc1cc(-c2cc(Cl)ccc2OCCn2c(C)nc3cc(C(F)(F)F)c(N4CCN(C)CC4)c(C#N)c3c2=O)c2sc(C)c(C(=O)O)c2n1` [compound 1087], for which the IC50 is, setting by setting: under setting [1], less than 50 nM; under setting [2], 39.2 nM. Turning to `Cc1nc2cc(C(F)F)cc(C#N)c2c(=O)n1CCOc1ccc(Cl)cc1-c1ccnc2c(C(=O)O)csc12` [compound 1939], under setting [3], the IC50 was 24.5 nM.

As to `CNc1nc2c(F)c(F)cc(CCOc3ccc(Cl)cc3-c3cccc(C(=O)O)c3)c2c(=O)[nH]1` [compound 172], the IC50 was 50 to 1000 nM under setting [1] and 92.3 nM under setting [2]. As to `Cc1nc2cc(Cl)c(S(=O)(=O)N(C)C)c(C#N)c2c(=O)n1CCOc1ccc(Cl)cc1-c1ccnc2c(C(=O)O)csc12` [compound 247], the IC50 was 50 to 1000 nM under setting [1] and 61.1 nM under setting [2]. The like results for `CC(=O)c1cnn2c(-c3cc(Cl)ccc3OCCn3c(C)nc4cc(C(F)(F)F)cc(C#N)c4c3=O)cc(C)nc12` [compound 414] were, in that order, less than 50 nM and 20.5 nM.

As to `Cc1cc(-c2cc(Cl)ccc2OCCn2c(C)nc3cnc(N4CCCC4=O)c(C#N)c3c2=O)c2scc(C(=O)O)c2n1` [compound 977], the IC50 reads like this: under setting [1], less than 50 nM; under setting [2], 14.4 nM. As for `Cc1nc2cc(Cl)c(F)c(C#N)c2c(=O)n1CCOc1ccc(Cl)cc1-c1ccnc2c(C(=O)O)csc12` [compound 242], the IC50 is, setting by setting: under setting [1], less than 50 nM; under setting [2], 20.3 nM.

On to `Cc1nc2cc(OC(F)(F)F)c(CN(C)C)c(C#N)c2c(=O)n1CCOc1ccc(Cl)cc1-c1ccnc2c(C(=O)O)csc12` [compound 532], for which the IC50 was less than 50 nM under setting [1] and 45.1 nM under setting [2]. For `Cc1nc2cnc(N(C)C3CCN(CC4(CF)CCC4)CC3)c(C#N)c2c(=O)n1CC#Cc1ccc(Cl)cc1-c1ccnc2c(C(=O)O)csc12` [compound 1584], the IC50 under setting [3] was 36.9 nM.

`Cc1nc2c(C#N)cc(C(F)F)c(C#N)c2c(=O)n1CCOc1ccc(Cl)cc1-c1ccnc2c(C(=O)O)csc12` [compound 197]: the IC50 runs as follows: under setting [1], 50 to 1000 nM; under setting [2], 52.4 nM. As for `Cc1nc2cnc(N(C)CC3CN(CC(F)F)C3)c(C#N)c2c(=O)n1CC#Cc1ccc(Cl)cc1-c1ccnc2c(C(=O)O)csc12` [compound 1542], the IC50 under setting [3] was 18.6 nM. In the case of `Cc1cc(-c2cc(Cl)ccc2OCCn2c(C)nc3cc(C(F)(F)F)c[n+]([O-])c3c2=O)c2scc(C(=O)O)c2n1` [compound 1007], the IC50 under setting [1] was less than 50 nM and the IC50 under setting [2] is 48.2 nM. `Cc1nc2cnc(N3CCN(C4(CCF)CC4)CC3)c(C#N)c2c(=O)n1CCOc1ccc(Cl)cc1-c1ccnc2c(C(=O)O)csc12` [compound 1425]: the IC50 under setting [3] is 13 nM.

For the compound `CC(=O)c1csc2c(-c3cc(Cl)ccc3C#CCn3c(C)nc4cc(C(F)(F)F)c(N5CC6(C5)CN(C5CC5)C6)c(C#N)c4c3=O)ccnc12` [compound 1178], the IC50 runs as follows: under setting [1], less than 50 nM; under setting [2], 22.9 nM. For `Cc1nc2cc3c(c(C#N)c2c(=O)n1CCOc1ccc(Cl)cc1-c1ccnc2c(C(=O)O)csc12)S(=O)(=O)N(C)C3` [compound 1953], the IC50 under setting [3] is 89.3 nM. Turning to `Cc1nc2cc(C(F)(F)F)c(Cl)c(C#N)c2c(=O)n1CCOc1cc(F)c(Cl)cc1-c1ccnc2c(C(=O)O)csc12` [compound 505], the IC50 reads like this: under setting [1], less than 50 nM; under setting [2], 43.6 nM.

For the compound `Cc1nc2cnc(N(C)C3CCN(CC(F)(F)C(F)F)CC3)c(C#N)c2c(=O)n1CC#Cc1ccc(Cl)cc1-c1ccnc2c(C(=O)NS(=O)(=O)C3COC3)csc12` [compound 1704], the IC50 under setting [3] was 6.54 nM.

Consider `Cc1nc2c(N(C)C3CCN(C)CC3F)ncc(C#N)c2c(=O)n1CCOc1ccc(Cl)cc1-c1ccnc2c(C(=O)O)csc12` (stereo not drawn) [compound 862], for which the IC50 was less than 50 nM under setting [1] and 20.9 nM under setting [2]. On the same counts, the results for `Cc1nc2ccc(CCN(C)C)c(C#N)c2c(=O)n1CCOc1ccc(Cl)cc1-c1ccc(C(F)(F)F)c2c(C(=O)O)csc12` [compound 578] are less than 50 nM and 32 nM. On the same counts, the results for `Cc1cc(-c2cc(Cl)ccc2OCCn2c(C)nc3cnc(-c4ccc(C(F)(F)F)cc4)c(C#N)c3c2=O)c2scc(C(=O)O)c2n1` [compound 952] are less than 50 nM and 45 nM. Regarding `Cc1cc2cc(C#N)c(CN(C)C)c(C#N)c2c(=O)n1CCOc1ccc(Cl)cc1-c1ccnc2c(C(=O)O)csc12` [compound 511], the IC50 is, setting by setting: under setting [1], 50 to 1000 nM; under setting [2], 88 nM. Turning to `Cc1nc2cnc(C3=C(C(C)(C)C)CN(C)C3)c(C#N)c2c(=O)n1CCOc1ccc(Cl)cc1-c1ccnc2c(C(=O)O)csc12` [compound 1332], under setting [3], the IC50 was 34.5 nM. As to `Cc1nc2cnc(N(C)C3CCN(CC(C)(F)F)CC3)c(C#N)c2c(=O)n1CC#Cc1ccc(Cl)cc1-c1ccnc2c(C(=O)NS(=O)(=O)c3ccn(C)n3)csc12` [compound 1676], the IC50 under setting [3] was 4.33 nM. As for `Cc1nc2cc(CN(C)C)c(C(F)(F)F)c(C#N)c2c(=O)n1CC#Cc1ccc(Cl)cc1-c1ccnc2c(C(=O)O)csc12` [compound 623], the IC50 reads like this: under setting [1], less than 50 nM; under setting [2], 4.77 nM. The like results for `CNc1ncc2nc(C)n(CCOc3ccc(Cl)cc3-c3cc(C)nc4c(C(=O)O)csc34)c(=O)c2c1C#N` [compound 985] were, in that order, less than 50 nM and 6.69 nM. On the same counts, the results for `COc1cc(-c2cc(Cl)ccc2OCCn2cnc3cnc(C#N)cc3c2=O)cc(C(=O)O)n1` [compound 87] are greater than 1000 nM and 1160 nM. `Cc1nc2cnc(N(C)C3CCN([C@H]4C[C@H](F)C4)CC3)c(C#N)c2c(=O)n1CC#Cc1ccc(Cl)cc1-c1ccnc2c(C(=O)NS(=O)(=O)c3cccnc3)csc12` [compound 1794]: the IC50 under setting [3] was 9.28 nM. As for `Cc1cc(-c2cc(Cl)ccc2C#CCn2c(C)nc3cnc(C#N)cc3c2=O)c2scc(C(=O)O)c2n1` [compound 599], the IC50 under setting [1] lay within 50 to 1000 nM and the IC50 under setting [2] was 61.6 nM. The like results for `Cc1cc(C#N)c2c(=O)n(CCOc3ccc(Cl)cc3-c3ccnc4c(C(=O)O)csc34)c(C)nc2c1` [compound 573] were, in that order, 50 to 1000 nM and 54.7 nM. As to `C=C(c1ncc2nc(C)n(CCOc3ccc(Cl)cc3-c3cc(C)nc4c(C(=O)O)csc34)c(=O)c2c1C#N)C(F)(F)F` [compound 989], the IC50 by setting is: under setting [1], less than 50 nM; under setting [2], 19.8 nM. The like results for `Cc1cc(-c2cc(Cl)ccc2OCCn2c(C)nc3cnc(CCN(C)C)c(C#N)c3c2=O)c2scc(C(=O)O)c2n1` [compound 365] were, in that order, less than 50 nM and 19 nM. On the same counts, the results for `Cc1nc2cc(C(F)(F)F)cc(C#N)c2c(=O)n1CCOc1ccc(Cl)cc1-c1cc(Cl)nc2c(C(=O)O)csc12` [compound 444] are less than 50 nM and 30.8 nM. Consider `O=C(O)c1cccc(-c2cc(Cl)ccc2OCCn2cnc3cnccc3c2=O)c1` [compound 1992], for which the IC50 under setting [3] was 490 nM. Consider `Cc1nc2cc(F)c(S(=O)(=O)N(C)C)c(C#N)c2c(=O)n1CCOc1ccc(Cl)cc1-c1ccnc2c(C(=O)O)csc12` [compound 281], for which the IC50 was less than 50 nM under setting [1] and 37.5 nM under setting [2]. Turning to `Cc1nc2cnc(N(C)C3CC4(C3)CN(C(C)(C)CF)C4)c(C#N)c2c(=O)n1CC#Cc1ccc(Cl)cc1-c1ccnc2c(C(=O)O)csc12` [compound 828], the IC50 is, setting by setting: under setting [1], less than 50 nM; under setting [2], 5.72 nM. Regarding `Cc1nc2cnc(N3CCN(C4CC4(C)C)CC3)c(C#N)c2c(=O)n1CCOc1ccc(Cl)cc1-c1ccnc2c(C(=O)O)csc12` (stereo not drawn) [compound 1638], under setting [3], the IC50 was 38.8 nM. For `Cc1nc2cc(C(F)(F)F)cc([N+](=O)[O-])c2c(=O)n1CCOc1ccc(Cl)cc1-c1ccnc2c(C(=O)O)csc12` [compound 271], the IC50 reads like this: under setting [1], less than 50 nM; under setting [2], 13.2 nM. On the same counts, the results for `Cc1cc(-c2cc(Cl)ccc2OCCn2c(C)nc3cnc(N(C)CC(F)F)c(C#N)c3c2=O)c2scc(C(=O)O)c2n1` [compound 973] are 50 to 1000 nM and 85 nM. As for `Cc1cc(-c2cc(Cl)ccc2OCCn2c(C)nc3cc(C(F)(F)F)c(-c4ccc(C)c(C)n4)c(C#N)c3c2=O)c2scc(C(=O)O)c2n1` [compound 904], the IC50 under setting [1] is less than 50 nM and the IC50 under setting [2] is 4.19 nM.

For `Cc1nc2cnc(N(C)C3CCN(CC(F)(F)c4ccccc4)CC3)c(C#N)c2c(=O)n1CC#Cc1ccc(Cl)cc1-c1ccnc2c(C(=O)O)csc12` [compound 1555], under setting [3], the IC50 was 23.9 nM. For the compound `Cc1nc2cnc(N3CCN(CC(C)(F)CF)CC3)c(C#N)c2c(=O)n1CCOc1ccc(Cl)cc1-c1ccnc2c(C(=O)O)csc12` (stereo not drawn) [compound 1164], the IC50 reads like this: under setting [1], less than 50 nM; under setting [2], 26.7 nM.

In the case of `Cc1sc2c(-c3cc(Cl)ccc3OCCn3c(C)nc4cc(C(F)(F)F)c(N5CCN(C)CC5=O)c(C#N)c4c3=O)ccnc2c1C(=O)O` [compound 1272], the IC50 under setting [3] is 28.1 nM.
